Tests used:
eDHFR = eDHFR (Escherichia coli, UniProt P0ABQ4); assay: FP assay, displacement of fluorescein-labeled methotrexate; type: binding, E. coli; conditions: displacement of fluorescein-labeled MTX from eDHFR
human DHFR = biological target: T1, human DHFR (Homo sapiens, UniProt P00374); assay: inhibition of human DHFR; type: biochemical
T1 sequence (P00374 1-187): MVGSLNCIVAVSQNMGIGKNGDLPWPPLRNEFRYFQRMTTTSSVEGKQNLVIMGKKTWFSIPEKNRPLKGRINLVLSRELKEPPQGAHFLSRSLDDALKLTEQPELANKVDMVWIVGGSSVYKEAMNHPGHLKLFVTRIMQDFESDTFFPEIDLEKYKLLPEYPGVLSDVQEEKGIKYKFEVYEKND

[1] = biological target: E. coli dihydrofolate reductase (eDHFR) (Escherichia coli, UniProt P0ABQ4); assay: inhibition assays of eDHFR; type: biochemical; conditions: eDHFR inhibition assay
E. coli dihydrofolate reductase (eDHFR), sequence (P0ABQ4 whole entry): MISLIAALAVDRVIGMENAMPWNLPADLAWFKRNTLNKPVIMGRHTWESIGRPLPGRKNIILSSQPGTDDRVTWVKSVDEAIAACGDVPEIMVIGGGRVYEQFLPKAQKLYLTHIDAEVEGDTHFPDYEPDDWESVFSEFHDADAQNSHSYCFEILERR

HaloTag-eDHFR = HaloTag-eDHFR (Escherichia coli, UniProt P0ABQ4); assay: DNA-based ligand displacement screen of LOPAC library with DNA-linked TMP probe; type: binding, E. coli; conditions: LOPAC1280 screen against HaloTag-eDHFR
HaloTag-eDHFR, sequence (P0ABQ4 whole entry): as above

[2] = system: PB1-BD2, PB1-BD4, PB1-BD5, BRD7 and BRD9; assay: concurrent screening against five bromodomain proteins; type: binding; conditions: five bromodomain proteins screened concurrently
BRD7/9 = assay: concurrent DNA-based displacement screening, DNA-bromosporine probe; type: binding; conditions: screen of 1000 compounds, TargetMol Bioactive Compound Library
PB1-BD2/4/5 = assay: DNA-based ligand displacement assay, IC50 determination of hit compounds; type: binding

eDHFR, sequence (P0ABQ4 whole entry): as above

Row | displacement of DNA-bromosporine probe (BRD7/9) | binding to respective bromodomains (IC50 determination) (PB1-BD2/4/5) | SMILES | IC50 (eDHFR) [µM] | inhibition of human DHFR (human DHFR) | Ki [1] [µM] | recovery of DNA-linked probe (HaloTag-eDHFR) | selectivity in concurrent screen [2]
1 | – | – | CN(CCOc1ccc(C[C@H](Nc2ccccc2C(=O)c2ccccc2)C(=O)O)cc1)c1ccccn1 [GW1929] | 7.9 | modest inhibition | 0.41 | low recovery | –
2 | significantly displaced | – | CN1C(=O)c2sccc2N(C)c2nc(Nc3ccc(S(N)(=O)=O)cc3)ncc21 [XMU-MP-1] | – | – | – | – | selectivity towards BRD7/9 over PB1-BD2/4/5
3 | – | potent binding | Cc1cc(C)c(Nc2ccnc(Nc3ccc(C#N)cc3)n2)c(C)c1 [dapivirine] | – | – | – | – | selectivity for PB1-BD4

Source: publication PMC8748404 (Angewandte Chemie (International ed. in English), 2021)
